In series [1] the target is Indoleamine 2,3-dioxygenase 1 (Homo sapiens, UniProt P14902). The series is described as follows: Inhibition of IDO1 (unknown origin) expressed in human HeLa cells. Format: cell-based.
Series [2] can be described thus: Metabolic stability in mouse liver microsomes assessed as compound remaining at 0.5 uM incubated for 10 mins relative to control. It counts as ADME, Microsome. The settings on record: for remaining at 10 min, 0.5 µM: liver microsomes, read-out: Stability.
Series [3] in a line: Metabolic stability in human liver microsomes assessed as compound remaining at 0.5 uM incubated for 10 mins relative to control. Format: ADME, Microsome. The settings on record: for remaining at 10 min, 0.5 µM: liver microsomes, read-out: Stability.
Series [4] addresses Cytochrome P450 2C9 (Homo sapiens, UniProt P11712). The series can be described thus: Inhibition of CYP2C9 (unknown origin). It counts as ADME.
Series [5] has as its target T1, Voltage-gated inwardly rectifying potassium channel KCNH2 (Homo sapiens, UniProt Q12809). The series is described as follows: Inhibition of hERG. It counts as toxicity.
Series [6] is described as follows: Metabolic stability in rat liver microsomes assessed as compound remaining at 0.5 uM incubated for 10 mins relative to control. It counts as ADME, Microsome. The settings on record: for remaining at 10 min, 0.5 µM: liver microsomes, read-out: Stability; for Stability: microsomes, 10 min, 0.5 µM.
The target of series [7] is T2, Nuclear receptor subfamily 1 group I member 2 (Homo sapiens, UniProt O75469).
T2 sequence (O75469 whole entry): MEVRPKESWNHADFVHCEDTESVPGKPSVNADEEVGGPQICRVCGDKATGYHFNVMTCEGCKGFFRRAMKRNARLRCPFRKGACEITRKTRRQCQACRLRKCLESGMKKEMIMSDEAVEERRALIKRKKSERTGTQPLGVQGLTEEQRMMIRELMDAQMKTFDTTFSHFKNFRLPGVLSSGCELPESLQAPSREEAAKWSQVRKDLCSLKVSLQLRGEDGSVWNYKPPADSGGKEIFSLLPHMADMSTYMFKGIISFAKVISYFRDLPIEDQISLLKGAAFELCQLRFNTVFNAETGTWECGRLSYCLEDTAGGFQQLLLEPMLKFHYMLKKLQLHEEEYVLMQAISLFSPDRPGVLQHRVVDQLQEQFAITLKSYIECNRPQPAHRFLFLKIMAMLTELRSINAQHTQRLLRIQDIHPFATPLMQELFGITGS
The series can be described thus: Transactivation of PXR (unknown origin). It counts as toxicity.

Series [8] has as its target Tryptophan 2,3-dioxygenase (Homo sapiens, UniProt P48775). The series is described as follows: Inhibition of TDO (unknown origin) expressed in HEK cells. Format: cell-based.
The target in series [9] is T3, Cytochrome P450 2C8 (Homo sapiens, UniProt P10632).
T3 sequence (P10632 whole entry): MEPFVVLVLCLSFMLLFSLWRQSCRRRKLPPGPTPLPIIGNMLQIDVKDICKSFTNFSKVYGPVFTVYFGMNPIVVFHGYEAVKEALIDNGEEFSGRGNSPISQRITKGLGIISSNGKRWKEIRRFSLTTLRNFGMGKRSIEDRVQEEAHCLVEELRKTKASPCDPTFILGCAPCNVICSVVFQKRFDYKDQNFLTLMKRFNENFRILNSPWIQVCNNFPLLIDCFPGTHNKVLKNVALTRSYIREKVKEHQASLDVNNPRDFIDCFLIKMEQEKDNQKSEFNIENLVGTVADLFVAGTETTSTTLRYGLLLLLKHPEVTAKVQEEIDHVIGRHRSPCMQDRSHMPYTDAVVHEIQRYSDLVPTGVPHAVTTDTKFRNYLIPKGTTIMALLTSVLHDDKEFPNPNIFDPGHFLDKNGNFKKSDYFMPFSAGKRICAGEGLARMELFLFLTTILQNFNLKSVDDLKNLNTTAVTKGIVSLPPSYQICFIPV
The series can be described thus: Inhibition of CYP2C8 (unknown origin). Format: ADME.

Series [10] addresses Cytochrome P450 2C19 (Homo sapiens, UniProt P33261). The series is described as follows: Inhibition of CYP2C19 (unknown origin). Format: ADME.
The target in series [11] is hERG (Homo sapiens, UniProt Q12809). The series can be described thus: (§1) Inhibition of hERG at 10 uM relative to control. Format: toxicity.
Sequence of hERG (Q12809 whole entry): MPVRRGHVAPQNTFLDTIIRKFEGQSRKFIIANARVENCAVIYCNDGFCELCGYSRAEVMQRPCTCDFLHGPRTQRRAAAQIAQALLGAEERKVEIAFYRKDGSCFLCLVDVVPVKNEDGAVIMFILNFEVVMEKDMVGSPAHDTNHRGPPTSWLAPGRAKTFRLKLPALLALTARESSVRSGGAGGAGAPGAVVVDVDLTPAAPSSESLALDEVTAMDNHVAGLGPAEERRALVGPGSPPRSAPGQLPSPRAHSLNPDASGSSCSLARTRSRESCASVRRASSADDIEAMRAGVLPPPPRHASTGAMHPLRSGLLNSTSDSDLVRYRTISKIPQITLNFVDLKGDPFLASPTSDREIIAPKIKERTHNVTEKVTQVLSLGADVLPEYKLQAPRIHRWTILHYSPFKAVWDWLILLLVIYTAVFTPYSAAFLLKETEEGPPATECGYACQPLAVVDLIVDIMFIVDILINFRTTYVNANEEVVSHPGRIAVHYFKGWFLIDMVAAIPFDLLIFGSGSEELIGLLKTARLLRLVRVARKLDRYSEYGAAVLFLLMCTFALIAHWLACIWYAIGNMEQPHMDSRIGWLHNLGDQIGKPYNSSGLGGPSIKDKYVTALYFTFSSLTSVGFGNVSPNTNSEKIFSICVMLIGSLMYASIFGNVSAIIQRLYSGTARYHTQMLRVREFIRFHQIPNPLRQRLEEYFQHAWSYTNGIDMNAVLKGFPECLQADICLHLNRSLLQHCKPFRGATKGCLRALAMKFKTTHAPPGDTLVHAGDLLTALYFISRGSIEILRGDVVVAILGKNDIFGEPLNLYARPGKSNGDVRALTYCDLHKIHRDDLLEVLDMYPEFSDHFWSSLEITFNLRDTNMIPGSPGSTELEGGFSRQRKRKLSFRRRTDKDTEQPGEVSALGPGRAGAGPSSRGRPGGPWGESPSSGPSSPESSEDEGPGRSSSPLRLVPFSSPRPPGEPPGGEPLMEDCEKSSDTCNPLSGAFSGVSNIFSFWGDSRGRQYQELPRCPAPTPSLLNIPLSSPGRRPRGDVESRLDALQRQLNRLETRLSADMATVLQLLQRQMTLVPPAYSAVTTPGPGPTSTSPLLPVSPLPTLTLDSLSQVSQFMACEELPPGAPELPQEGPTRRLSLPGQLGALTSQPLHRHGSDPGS
Series [12] addresses T1, Voltage-gated inwardly rectifying potassium channel KCNH2. Described as §1. The conditions noted are these: 10 µM. It counts as toxicity.

A value given as a limit tells only on which side of the number the result lay.

Sequence of Cytochrome P450 2C9 (P11712 whole entry): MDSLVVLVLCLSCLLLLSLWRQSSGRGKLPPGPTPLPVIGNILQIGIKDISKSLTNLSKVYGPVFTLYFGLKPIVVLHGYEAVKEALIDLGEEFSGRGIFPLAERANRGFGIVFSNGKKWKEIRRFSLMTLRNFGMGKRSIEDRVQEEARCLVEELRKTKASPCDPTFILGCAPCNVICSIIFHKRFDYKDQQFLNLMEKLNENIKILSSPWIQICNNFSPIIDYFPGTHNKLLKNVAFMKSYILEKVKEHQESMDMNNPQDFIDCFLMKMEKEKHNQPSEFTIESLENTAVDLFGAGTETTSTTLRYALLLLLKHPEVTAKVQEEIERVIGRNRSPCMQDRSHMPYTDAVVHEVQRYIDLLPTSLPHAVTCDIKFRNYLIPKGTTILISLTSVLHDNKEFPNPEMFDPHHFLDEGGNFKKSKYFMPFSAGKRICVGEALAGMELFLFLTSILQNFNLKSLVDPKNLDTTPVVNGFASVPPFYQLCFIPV
Sequence of Indoleamine 2,3-dioxygenase 1 (P14902 whole entry): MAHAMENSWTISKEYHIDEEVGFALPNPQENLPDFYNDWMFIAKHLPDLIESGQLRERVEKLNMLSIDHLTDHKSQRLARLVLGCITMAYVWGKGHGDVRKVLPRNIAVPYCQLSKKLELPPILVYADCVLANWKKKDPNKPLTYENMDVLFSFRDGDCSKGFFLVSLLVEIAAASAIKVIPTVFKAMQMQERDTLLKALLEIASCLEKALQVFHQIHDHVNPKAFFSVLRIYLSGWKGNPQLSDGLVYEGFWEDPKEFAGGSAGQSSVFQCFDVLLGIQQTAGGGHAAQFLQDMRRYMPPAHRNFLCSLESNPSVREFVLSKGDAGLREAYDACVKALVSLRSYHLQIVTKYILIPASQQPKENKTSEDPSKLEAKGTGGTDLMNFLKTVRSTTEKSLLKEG
Sequence of Tryptophan 2,3-dioxygenase (P48775 whole entry): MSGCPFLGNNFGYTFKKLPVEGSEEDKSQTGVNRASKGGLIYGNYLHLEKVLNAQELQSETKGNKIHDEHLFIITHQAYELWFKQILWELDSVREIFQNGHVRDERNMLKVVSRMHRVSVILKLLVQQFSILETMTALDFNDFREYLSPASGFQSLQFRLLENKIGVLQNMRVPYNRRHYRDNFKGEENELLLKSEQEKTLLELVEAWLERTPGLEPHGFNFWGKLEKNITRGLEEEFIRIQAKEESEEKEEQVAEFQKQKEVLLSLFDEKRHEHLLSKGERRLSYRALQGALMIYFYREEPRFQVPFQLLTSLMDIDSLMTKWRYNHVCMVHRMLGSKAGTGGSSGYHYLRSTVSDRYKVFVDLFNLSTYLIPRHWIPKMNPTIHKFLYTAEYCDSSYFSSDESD
T1 sequence (Q12809 whole entry): as the sequence (Q12809 whole entry) above
Sequence of Cytochrome P450 2C19 (P33261 whole entry): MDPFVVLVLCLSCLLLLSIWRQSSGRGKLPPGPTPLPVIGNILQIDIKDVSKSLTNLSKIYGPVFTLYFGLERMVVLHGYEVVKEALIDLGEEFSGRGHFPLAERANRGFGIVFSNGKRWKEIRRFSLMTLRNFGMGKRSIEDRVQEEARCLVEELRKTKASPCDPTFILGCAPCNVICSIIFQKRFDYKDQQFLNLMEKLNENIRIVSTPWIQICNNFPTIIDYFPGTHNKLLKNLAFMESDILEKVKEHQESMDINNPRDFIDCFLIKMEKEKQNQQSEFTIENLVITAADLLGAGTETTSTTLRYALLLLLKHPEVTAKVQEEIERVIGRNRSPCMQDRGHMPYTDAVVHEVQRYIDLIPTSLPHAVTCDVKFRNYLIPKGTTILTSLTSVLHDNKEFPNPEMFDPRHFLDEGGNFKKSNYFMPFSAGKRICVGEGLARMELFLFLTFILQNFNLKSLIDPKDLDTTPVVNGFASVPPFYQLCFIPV

`COc1ccc(-c2ccc(OC(C(C)C)C(C)C)c(NC(=O)Nc3ccc(C)cc3)c2)cc1C(=O)O` showed a half-inhibitory concentration (IC50) in [1] of 1600 nM.
`CCCC(CCC)Oc1ccc(-c2ccccc2-c2nn[nH]n2)cc1NC(=O)Nc1ccc(C)cc1`: the remaining at 10 min, 0.5 µM in series [2] was determined as 47%; in [3], 62%; in [6], 76%. Also, the figures for the half-maximal inhibitory concentration (IC50) in series [1], in series [4] and in [5] were 25 nM, 1800 nM and greater than 80000 nM, respectively.
For the molecule `CCCOc1c(CCC)cc(-c2ccccc2-c2nn[nH]n2)cc1NC(=O)Nc1ccc(C)cc1`, the remaining at 10 min, 0.5 µM is 68% in series [2], 82% in [3] and 86% in series [6]. The values for the IC50 in series [1], in series [4] and in series [5] were 31 nM, 6200 nM and 40000 nM, respectively. In series [7], this molecule had an EC50 greater than 9000 nM.
Take `CC(C)CN(CC(C)C)c1ccc(-c2ccccc2C(=O)O)cc1NC(=O)Nc1ccccc1F`: the values for the remaining at 10 min, 0.5 µM in series [2], in series [3] and in [6] were 81%, 75% and 72%, respectively. Further, the IC50 in [1] was found to be 13 nM; in [4], 5100 nM.
As to `C=CC1(C=C)Oc2c(NC(=O)Nc3ccc(C)cc3)cc(-c3ccccc3-c3nn[nH]n3)cc2[C@@H]1c1ccccc1`, the remaining at 10 min, 0.5 µM in series [2] was 77%; in series [3], 94%; in series [6], 86%. Further, the IC50 in series [1] was 3.4 nM; in series [8] it was greater than 7500 nM; in series [9], 270 nM; in [5], greater than 80000 nM.
As to `Cc1ccc(NC(=O)Nc2cc(-c3ccccc3-c3nn[nH]n3)cc3c2O[C@@H](C)C/C=C\[C@H]3c2ccccc2)cc1`, the remaining at 10 min, 0.5 µM in series [2] worked out at 76%; in series [3] it was 94%; in [6] it was 61%. In addition, the results for the IC50 in series [1] and in series [9] were 12 nM and 1900 nM, respectively.
Regarding `COc1ccc(-c2ccc(Oc3ccccc3C(C)(C)C)c(NC(=O)Nc3ccccc3F)c2)cc1C(=O)O`, the remaining at 10 min, 0.5 µM in series [2] was 61%; in series [3], 100%; in series [6], 100%. Further, the figures for the half-maximal inhibitory concentration (IC50) in series [8] and in series [9] were greater than 7500 nM and 5100 nM, respectively.
For `Cc1ccc(NC(=O)Nc2cc(-c3ccccc3-c3nn[nH]n3)ccc2OC(C(C)C)C(C)C)cc1`, the remaining at 10 min, 0.5 µM was determined as 2% in series [2], 41% in series [3] and 48% in [6]. In addition, the figures for the IC50 in series [4] and in series [5] were 1400 nM and 18000 nM, respectively.
For the molecule `Cc1ccc(NC(=O)Nc2cc(-c3ccccc3-c3nn[nH]n3)cc3c2O[C@@H](C)CCC[C@H]3c2ccccc2)cc1`, the remaining at 10 min, 0.5 µM in series [2] came out at 66%; in [3], 100%; in series [6] it was 74%. Also, the concentration for half-maximal inhibition (IC50) came to 25 nM in [1] and 3200 nM in series [9].
Regarding `CCCOc1c(CCC)cc(-c2ccccc2C(=O)O)cc1NC(=O)Nc1ccc(C)cc1`, the remaining at 10 min, 0.5 µM came out at 82% in series [2], 100% in series [3] and 85% in series [6]. In addition, in [7], the EC50 was greater than 20000 nM. For the same molecule, the results for the half-maximal inhibitory concentration (IC50) in series [4] and in [5] were 14000 nM and greater than 80000 nM, respectively.
For the molecule `C=C[C@@H]1Oc2c(NC(=O)Nc3ccc(C)cc3)cc(-c3ccccc3-c3nn[nH]n3)cc2[C@@H]1c1ccccc1` (racemic), the remaining at 10 min, 0.5 µM in series [2] was 57%; in series [3], 82%; in series [6] it was 77%. Also, the IC50 in series [1] was found to be 5.9 nM; in [4], 970 nM.
Regarding `Cc1ccc(NC(=O)Nc2cc(-c3ccccc3-c3nn[nH]n3)cc3c2OCC=CC3c2ccccc2)cc1` (racemic), the remaining at 10 min, 0.5 µM in [2] came out at 68%; in series [3], 69%; in [6], 66%. In addition, the IC50 in series [1] turned out to be 11 nM; in series [4], 2800 nM; in [5] it was 69000 nM.
Regarding `C=C[C@H]1Oc2c(NC(=O)Nc3ccc(C)cc3)cc(-c3ccccc3-c3nnn[nH]3)cc2[C@@H]1c1ccccc1` (racemic), the remaining at 10 min, 0.5 µM in series [2] was 75%; in series [3] it was 78%; in series [6], 88%. Besides, the IC50 in [1] is 12 nM; in [8] it was greater than 7500 nM; in series [9], 1000 nM.
On to `COc1ccc(-c2ccc(O[C@@H]3CCCC[C@H]3C)c(NC(=O)Nc3ccc(C)cc3)c2)cc1C(=O)O` (racemic), for which the IC50 in series [1] was greater than 1000 nM.
On the same count and under the same terms, to `Cc1ccc(NC(=O)Nc2cc(-c3ccccc3C(=O)O)ccc2O[C@@H]2CCCC[C@H]2C)cc1` (racemic) belongs 240 nM.
Turning to `Cc1ccc(NC(=O)Nc2cc(-c3ccccc3-c3nn[nH]n3)cc3c2OC(C)(C)[C@H]3c2ccccc2)cc1` (racemic), the values for the remaining at 10 min, 0.5 µM in [2], in series [3] and in [6] were 42%, 52% and 73%, respectively. The results for the IC50 in series [1] and in series [10] were 6.3 nM and 420 nM, respectively.
Take `Cc1ccc(NC(=O)Nc2cc(-c3ccccc3-c3nc(=O)[nH]o3)cc3c2OCCCC3c2ccccc2)cc1` (stereo in doubt; 19): the remaining at 10 min, 0.5 µM in series [2] turned out to be 56%; in series [3], 72%. The figures for the IC50 in [1], in [10] and in series [8] were 1.5 nM, 1200 nM and greater than 6000 nM, respectively. Besides, the inhibition at 10 µM in [11] was 12%. The Stability in [6] is given as 61%.
For the molecule `Cc1ccc(NC(=O)Nc2cc(-c3ccccc3-c3nn[nH]n3)cc3c2OCCCC3c2ccccc2)cc1` (stereo in doubt; 22), the Stability is recorded as 100% in series [2] (microsomes, 10 min, 0.5 µM); 72% in series [3] (microsomes, 10 min, 0.5 µM); 96% in series [6]. Further, the values for the half-inhibitory concentration (IC50) in series [1], in series [8] (hek) and in series [4] were 15 nM, greater than 6000 nM and 6800 nM, respectively. Also, the “inhibition (INH)” value in series [12] stood at 53%.

The record behind these values is ChEMBL document CHEMBL5257092, “Synthesis and biological evaluation of biaryl alkyl ethers as inhibitors of IDO1” (Bioorg Med Chem Lett, 2023).
